Test results taken from patent publication US8722714B2, “Oxazolidine derivatives as NMDA antagonists” (The Honk Kong University of Science and Technology, priority 2008, dated 2014).

Test system: MCAO rats
Assay: Middle cerebral artery occlusion (MCAO) model: mNSS, infarct volume, edema volume
Format: in vivo, rat
Details: for edema volume (% of the ipsilateral hemisphere) / infarct volume: 2 h MCAO; for infarct volume: mean±S.E.M.
Experimental: Before surgery, male rats were 259-354 g fasted overnight with free access to water. Briefly, rats were anesthetized with chloral hydrate (400 mg/kg, ip). Through a midline neck incision, the right common and external carotid artery were isolated from muscles and coagulated. A suture with a blunted tip was inserted into the internal carotid through the external carotid artery stump and advanced up to 21 mm or till resistance was […]. A thermostatically regulated heating pad was used to maintain temperature at 37° C. After 2 h of MCAO, the suture was removed to restore blood flow. In sham group, the same surgical procedure was performed except that the suture was introduced into the external carotid artery but not advanced. After surgery, the incision was sutured and the rats were returned to their cage with free access to water and food.
Neurological function of ischemic rats was graded on modified Neurological Severity Score (mNSS) system in a range of 0 to 18 (normal score, 0; maximal deficit score, 18). The mNSS system is a composite evaluation of motor and sensory function, balance impairment and reflex abnormality of ischemic animals (Chen et al., 2001 Intravenous administration of human umbilical cord blood reduces behavioral deficits after stroke in rats. Stroke 32:2682-8.). In the severity scores of injury, 1 score point is awarded for the inability to perform the test or for the lack of a tested reflex; thus, the higher the score, the more severe is the injury.
At 3 days after ischemia, whole brains were rapidly removed. The brain were sliced into 2-mm-thick coronal sections and stained with 1% 2,3,5-triphenyltetrazoliumchloride (TTC, Sigma) at 37° C. for 30 minutes in the dark, followed by fixation with 4% paraformaldehyde (PFA) at 4° C. overnight. The sections were scanned with scanner connected to a computer. The unstained areas, defined as infarct tissue, were calculated by using an image analysis program. The infarct volume was calculated by measuring the unstained area in each slice. The infarct area in each slice was calculated by subtracting the normal ipsilateral (ischemic) area from that of the contralateral (non-ischemic) hemisphere to reduce errors due to cerebral edema and was presented as a percentage relative to the area of the contralateral hemisphere.
The contralateral hemispheric volume was used as a control for calculation of ischemia-induced brain edema in the ipsilateral hemisphere. A net difference in hemispheric volumes was gained by subtracting the volume of the […] from that of the infracted hemisphere. Brain swelling was expressed as a percentage of the net difference in ischemic hemispheric volume over the contralateral hemispheric volume.
Rats were subjected to middle cerebral artery occlusion (MCAO) to induce focal cerebral ischemia. Neurological functions of these ischemic rats were then graded on a modified Neurological Severity Score (mNSS) system from a range of 0 to 18 (normal score, 0; maximal deficit score, 18). The mNSS system is a composite evaluation of motor and sensory function, balance impairment and reflex abnormality of ischemic animals. […]
3 days after ischemia, whole brains were rapidly removed, sliced into 2-mm-thick coronal sections, stained with 1% 2,3,5-triphenyltetrazoliumchloride (TTC) and fixed (FIG. 6a). […] Infarct volume was measured in the coronal brain sections.
Infarct volume and edema volume were also measured. […]

Q: With `CC[C@H]1N[C@@H](CC(C)C)C(CC)(CC)O1` [LC-02] as the compound, how does the “edema volume (% of the ipsilateral hemisphere)” value (35 mg/kg) read?
A: 2.44±0.43%

Q: What about the infarct volume (35 mg/kg) of the same compound?
A: 34.45%±3.38%

Q: And the “functional recovery, modified Neurological Severity Score (mNSS)” value (70 mg/kg oral, 24, 48 and 72 hours after MCAO, vs vehicle)?
A: significantly improved functional recovery

Q: And the “edema volume (% of the ipsilateral hemisphere)” value (70 mg/kg)?
A: 2.85±0.80%

Q: And the infarct volume (70 mg/kg, P<0.01)?
A: 18.49%±2.34%
